Two molecules from PMC8998611, “Identification of Novel GSK-3β Hits Using Competitive Biophysical Assays” (International Journal of Molecular Sciences, 2022) can be followed below.

The target of one test is T1, p70S6K (Homo sapiens, UniProt P23443).
T1 construct: purchased Eurofins (Kinase Diversity Panel service)
In words: Eurofins Kinase Diversity Panel, p70S6K. Type of test: biochemical. To be noted: 20 µM compound; ATP at Km ± 15 µM; read-out: inhibitory effect on p70S6K. Here is the method:
(§1) To further characterize the inhibitory activity of the two selected fragments, the selectivity of G5 and G12 towards a panel of 58 kinases of the humane proteome was evaluated using the “Kinase screening and profiling” service of Eurofins, Luxembourg (Kinase Diversity Panel). […] Results are reported in Supplementary Figures S2 and S3.

The next test concerns the target T2, SAPK2a (Homo sapiens, UniProt Q16539).
T2 construct: purchased Eurofins (Kinase Diversity Panel service)
Briefly: Eurofins Kinase Diversity Panel, SAPK2a. Type of test: biochemical. The note with it: 20 µM compound, ATP at Km ± 15 µM. Here is the method: as §1

In a further test the target is T3, LOK1 (Homo sapiens, UniProt O94804).
T3 construct: purchased Eurofins (Kinase Diversity Panel service)
T3 sequence (O94804 whole entry): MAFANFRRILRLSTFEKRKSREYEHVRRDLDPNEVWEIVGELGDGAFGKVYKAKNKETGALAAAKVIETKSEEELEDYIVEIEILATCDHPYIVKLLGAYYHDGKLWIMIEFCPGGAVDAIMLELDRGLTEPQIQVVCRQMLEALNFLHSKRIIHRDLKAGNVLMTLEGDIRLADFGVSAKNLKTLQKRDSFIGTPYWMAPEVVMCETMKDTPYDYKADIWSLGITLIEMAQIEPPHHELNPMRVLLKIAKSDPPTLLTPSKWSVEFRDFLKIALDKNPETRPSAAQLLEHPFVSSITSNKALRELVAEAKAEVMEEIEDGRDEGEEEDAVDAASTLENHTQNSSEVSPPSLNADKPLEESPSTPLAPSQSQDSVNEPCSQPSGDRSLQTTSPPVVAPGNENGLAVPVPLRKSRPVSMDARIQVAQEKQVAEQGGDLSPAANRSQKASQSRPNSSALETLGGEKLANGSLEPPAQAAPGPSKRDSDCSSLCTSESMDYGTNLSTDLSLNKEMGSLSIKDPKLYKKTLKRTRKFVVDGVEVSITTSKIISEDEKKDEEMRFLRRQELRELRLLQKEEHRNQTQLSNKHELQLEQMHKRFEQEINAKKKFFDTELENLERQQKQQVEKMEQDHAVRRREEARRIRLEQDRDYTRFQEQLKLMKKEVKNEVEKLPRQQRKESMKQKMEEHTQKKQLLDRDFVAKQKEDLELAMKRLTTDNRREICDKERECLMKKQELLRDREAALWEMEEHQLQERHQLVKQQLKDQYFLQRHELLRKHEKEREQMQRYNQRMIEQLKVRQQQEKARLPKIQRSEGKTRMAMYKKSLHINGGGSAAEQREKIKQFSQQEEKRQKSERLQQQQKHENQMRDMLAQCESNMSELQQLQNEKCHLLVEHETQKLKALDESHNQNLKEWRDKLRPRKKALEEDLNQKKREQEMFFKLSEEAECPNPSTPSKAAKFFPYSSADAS
Briefly: Eurofins Kinase Diversity Panel, LOK1. Type of test: biochemical. The note with it: 20 µM compound; ATP at Km ± 15 µM; read-out: inhibitory effect on LOK1. Here is the method:
as §1

The target of a further test is T4, AMPK1α (Homo sapiens, UniProt Q13131).
T4 construct: purchased Eurofins (Kinase Diversity Panel service)
In words: Eurofins Kinase Diversity Panel, AMPK1α. In kind it is biochemical. To be noted: 20 µM compound; ATP at Km ± 15 µM. Here is the method: as §1

Another test has as its target T5, MEK1 (Homo sapiens, UniProt Q02750).
T5 construct: purchased Eurofins (Kinase Diversity Panel service)
Briefly: Eurofins Kinase Diversity Panel, MEK1. Type of test: biochemical. To be noted: 20 µM compound; ATP at Km ± 15 µM. Here is the method:
as §1

The test system of the next test is CDKs. Briefly: Eurofins Kinase Diversity Panel, CDKs. Type of test: biochemical, human. To be noted: 20 µM compound; ATP at Km ± 15 µM. Here is the method: as §1
Test [1] has as its target T6, GSK-3β (Homo sapiens, UniProt P49841). In words: MicroScale Thermophoresis (MST) binding to fluorescently labeled GSK-3β. Also noted: made in house; host or cells: Sf9 cells. The note with it: for MST binding check, displacement assay: preincubation with 3 mM AMP-PNP, data not shown. Here is the method:
MicroScale Thermophoresis (MST) experiments were conducted in triplicate on a Monolith NT.115 Pico system (NanoTemper Technologies, Munich, Germany).
The MST technique was used both for hit binding and for affinity (kd) determination.
GSK-3β was labeled with the His-tag RED-tris-NTA label 2nd generation (Nanotemper Technologies) following Nanotemper technology protocol. The 100 nM stock labeled protein solution was used at 20 nM concentration to roughly start from 7000 fluorescence counts in each screening experiment.
GSK-3β was labelled also using RED-NHS ammine dye (Nanotemper Technologies) following the manufacturer’s protocol. The obtained ammine-labeled protein was used at 20 nM concentration to roughly start the experiments from 6000 fluorescence counts.
Binding tests were performed on eight capillaries with a constant concentration of the labeled protein (20 nM), to detect the effect induced by the compounds on the fluorescence signal (in the presence or absence of 3 mM AMP-PNP). Protein in assay buffer in the presence of 5% DMSO was the negative control.
Assay buffer: Phosphate buffer 0.1 M pH 7.2, 5 mM MgCl2, 0.001% Tween80, 0.1% PEG8000. Experiments were performed in triplicates. Data elaboration and plots were performed using MO.Control Nanotemper software.

The target of test [2] is T6, GSK-3β. Briefly: Thermal shift assay with SYPRO Orange. In kind it is binding. Also noted: made in house; host or cells: Sf9 cells. To be noted: GSK-3β 5 μM; normalized to DMSO effect. Here is the method:
Given the poor inhibitory activity of compounds B3 and E2, only G5 and G12 were selected for further biophysical and structural investigations. […] A Tm increase of 3.2 °C and 2.5 °C was observed upon binding of G5 and G12, respectively. Reported effects were compared and normalized to the effect induced by DMSO alone on GSK-3β denaturation. The same experiments were also performed in the presence of AMP-PNP to unravel a possible effect of this molecule on protein denaturation.
Thermal shift experiments were conducted in technical triplicates and recorded with a ViiA7^TM real-time PCR instrument. The analysis protocol of Partch and colleagues developed for fast stability screening of buffers and interactors for recombinant proteins was followed, [42]. Briefly, the recombinant protein GSK-3β at a final concentration of 5 μM was mixed with the dye SYPRO Orange (2× final concentrated) in the selected assay buffer (NaCl 300 mM, Hepes pH 7.5 20 mM, MgCl2 5 mM, DTT 1 mM) and incubated with hit compounds at two different concentrations, 200 and 500 μM. Experiments were also performed on GSK-3β also in the presence of AMP-PNP at a final concentration of 200 μM. […]
Output data were collected and analyzed with Excel software and Graphpad Prism 7.

In the next test the target is T7, CDK9 (Homo sapiens, UniProt P50750).
T7 construct: purchased Eurofins (Kinase Diversity Panel service)
In words: Eurofins Kinase Diversity Panel, CDK9. The note with it: 20 µM compound; ATP at Km ± 15 µM; read-out: inhibitory effect on CDK9. In kind it is biochemical. Here is the method:
as §1

A further test deals with T8, TAK1 (Homo sapiens, UniProt O43318).
T8 construct: purchased Eurofins (Kinase Diversity Panel service)
T8 sequence (O43318 1-303 limits assumed): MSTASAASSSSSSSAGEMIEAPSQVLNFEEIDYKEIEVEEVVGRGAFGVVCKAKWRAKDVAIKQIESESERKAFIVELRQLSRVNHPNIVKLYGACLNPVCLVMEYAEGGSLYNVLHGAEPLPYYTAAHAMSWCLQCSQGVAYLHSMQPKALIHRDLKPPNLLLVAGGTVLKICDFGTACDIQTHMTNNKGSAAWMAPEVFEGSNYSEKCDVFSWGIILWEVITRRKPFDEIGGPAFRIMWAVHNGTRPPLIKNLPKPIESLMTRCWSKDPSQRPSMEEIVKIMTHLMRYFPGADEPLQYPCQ
Briefly: Eurofins Kinase Diversity Panel, TAK1. To be noted: 20 µM compound; ATP at Km ± 15 µM; read-out: inhibitory effect on TAK1. In kind it is biochemical. Here is the method:
as §1

In the next test the target is T9, MLK1 (Homo sapiens, UniProt P80192).
T9 construct: purchased Eurofins (Kinase Diversity Panel service)
T9 sequence (P80192 whole entry): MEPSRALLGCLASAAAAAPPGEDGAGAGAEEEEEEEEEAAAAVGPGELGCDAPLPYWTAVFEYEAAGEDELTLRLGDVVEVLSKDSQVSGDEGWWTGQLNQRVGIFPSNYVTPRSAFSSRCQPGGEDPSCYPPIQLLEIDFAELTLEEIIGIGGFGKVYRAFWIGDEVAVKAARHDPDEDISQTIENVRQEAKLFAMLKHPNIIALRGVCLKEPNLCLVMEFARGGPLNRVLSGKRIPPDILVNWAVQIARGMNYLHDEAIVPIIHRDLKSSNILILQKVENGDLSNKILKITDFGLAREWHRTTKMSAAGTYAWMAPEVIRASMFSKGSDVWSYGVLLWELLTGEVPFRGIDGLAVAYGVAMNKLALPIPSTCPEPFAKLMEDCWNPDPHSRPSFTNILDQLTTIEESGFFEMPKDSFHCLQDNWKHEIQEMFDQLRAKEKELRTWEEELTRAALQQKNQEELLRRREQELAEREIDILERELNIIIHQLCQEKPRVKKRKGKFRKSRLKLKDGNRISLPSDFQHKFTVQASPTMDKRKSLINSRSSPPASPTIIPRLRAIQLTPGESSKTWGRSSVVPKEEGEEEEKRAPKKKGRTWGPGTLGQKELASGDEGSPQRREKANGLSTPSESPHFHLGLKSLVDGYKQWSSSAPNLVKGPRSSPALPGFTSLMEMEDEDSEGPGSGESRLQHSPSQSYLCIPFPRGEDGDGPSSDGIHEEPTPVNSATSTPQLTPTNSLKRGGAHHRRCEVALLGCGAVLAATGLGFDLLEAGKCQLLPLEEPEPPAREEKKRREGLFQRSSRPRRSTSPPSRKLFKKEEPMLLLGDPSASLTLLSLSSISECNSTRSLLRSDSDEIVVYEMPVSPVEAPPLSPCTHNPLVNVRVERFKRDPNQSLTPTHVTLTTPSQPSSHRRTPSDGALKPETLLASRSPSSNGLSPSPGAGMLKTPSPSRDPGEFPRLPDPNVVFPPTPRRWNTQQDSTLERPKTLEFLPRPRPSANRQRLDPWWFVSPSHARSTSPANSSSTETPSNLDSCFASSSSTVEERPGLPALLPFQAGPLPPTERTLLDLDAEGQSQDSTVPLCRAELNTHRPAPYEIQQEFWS
Briefly: Eurofins Kinase Diversity Panel, MLK1. Type of test: biochemical. The note with it: 20 µM compound; ATP at Km ± 15 µM. Here is the method: as §1

A further test addresses T10, ABL (Homo sapiens, UniProt P00519).
T10 construct: purchased Eurofins (Kinase Diversity Panel service)
Briefly: Eurofins Kinase Diversity Panel, ABL. Type of test: biochemical. The note with it: 20 µM compound; ATP at Km ± 15 µM. Here is the method: as §1

T6 sequence (P49841 whole entry): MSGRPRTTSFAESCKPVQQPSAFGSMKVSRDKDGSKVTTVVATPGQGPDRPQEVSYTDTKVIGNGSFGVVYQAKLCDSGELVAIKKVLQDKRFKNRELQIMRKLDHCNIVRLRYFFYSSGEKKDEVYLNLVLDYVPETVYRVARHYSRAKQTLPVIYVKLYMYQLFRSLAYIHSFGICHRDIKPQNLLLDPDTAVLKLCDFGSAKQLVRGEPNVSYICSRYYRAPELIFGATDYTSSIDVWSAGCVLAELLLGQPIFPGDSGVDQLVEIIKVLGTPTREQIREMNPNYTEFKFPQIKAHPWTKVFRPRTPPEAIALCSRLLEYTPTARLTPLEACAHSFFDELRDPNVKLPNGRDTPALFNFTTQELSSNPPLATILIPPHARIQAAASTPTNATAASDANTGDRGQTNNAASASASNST
T1 sequence (P23443 whole entry): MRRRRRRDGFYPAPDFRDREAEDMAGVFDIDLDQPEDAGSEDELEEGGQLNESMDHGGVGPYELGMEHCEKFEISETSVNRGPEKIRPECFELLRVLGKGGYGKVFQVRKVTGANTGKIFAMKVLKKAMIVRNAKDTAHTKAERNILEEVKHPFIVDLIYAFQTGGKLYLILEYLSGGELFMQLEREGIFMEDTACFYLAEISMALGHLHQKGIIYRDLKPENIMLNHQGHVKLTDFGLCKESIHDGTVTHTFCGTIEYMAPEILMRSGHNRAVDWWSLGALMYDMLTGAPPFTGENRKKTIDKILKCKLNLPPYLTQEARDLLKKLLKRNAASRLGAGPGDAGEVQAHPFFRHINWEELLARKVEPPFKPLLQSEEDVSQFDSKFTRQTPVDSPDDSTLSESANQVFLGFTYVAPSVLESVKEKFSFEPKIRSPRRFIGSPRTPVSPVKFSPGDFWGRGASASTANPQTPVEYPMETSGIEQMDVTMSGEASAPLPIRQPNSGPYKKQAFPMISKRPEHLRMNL
T2 sequence (Q16539 whole entry): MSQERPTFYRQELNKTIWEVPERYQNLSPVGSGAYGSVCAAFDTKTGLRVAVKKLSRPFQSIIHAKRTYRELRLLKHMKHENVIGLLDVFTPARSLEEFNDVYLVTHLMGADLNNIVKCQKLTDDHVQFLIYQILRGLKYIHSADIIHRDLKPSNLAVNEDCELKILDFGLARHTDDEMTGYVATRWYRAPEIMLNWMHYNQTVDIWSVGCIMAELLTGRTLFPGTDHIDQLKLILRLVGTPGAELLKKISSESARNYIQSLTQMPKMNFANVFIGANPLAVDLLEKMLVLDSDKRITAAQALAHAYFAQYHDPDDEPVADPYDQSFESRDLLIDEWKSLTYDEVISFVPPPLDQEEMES
T10 sequence (P00519 whole entry): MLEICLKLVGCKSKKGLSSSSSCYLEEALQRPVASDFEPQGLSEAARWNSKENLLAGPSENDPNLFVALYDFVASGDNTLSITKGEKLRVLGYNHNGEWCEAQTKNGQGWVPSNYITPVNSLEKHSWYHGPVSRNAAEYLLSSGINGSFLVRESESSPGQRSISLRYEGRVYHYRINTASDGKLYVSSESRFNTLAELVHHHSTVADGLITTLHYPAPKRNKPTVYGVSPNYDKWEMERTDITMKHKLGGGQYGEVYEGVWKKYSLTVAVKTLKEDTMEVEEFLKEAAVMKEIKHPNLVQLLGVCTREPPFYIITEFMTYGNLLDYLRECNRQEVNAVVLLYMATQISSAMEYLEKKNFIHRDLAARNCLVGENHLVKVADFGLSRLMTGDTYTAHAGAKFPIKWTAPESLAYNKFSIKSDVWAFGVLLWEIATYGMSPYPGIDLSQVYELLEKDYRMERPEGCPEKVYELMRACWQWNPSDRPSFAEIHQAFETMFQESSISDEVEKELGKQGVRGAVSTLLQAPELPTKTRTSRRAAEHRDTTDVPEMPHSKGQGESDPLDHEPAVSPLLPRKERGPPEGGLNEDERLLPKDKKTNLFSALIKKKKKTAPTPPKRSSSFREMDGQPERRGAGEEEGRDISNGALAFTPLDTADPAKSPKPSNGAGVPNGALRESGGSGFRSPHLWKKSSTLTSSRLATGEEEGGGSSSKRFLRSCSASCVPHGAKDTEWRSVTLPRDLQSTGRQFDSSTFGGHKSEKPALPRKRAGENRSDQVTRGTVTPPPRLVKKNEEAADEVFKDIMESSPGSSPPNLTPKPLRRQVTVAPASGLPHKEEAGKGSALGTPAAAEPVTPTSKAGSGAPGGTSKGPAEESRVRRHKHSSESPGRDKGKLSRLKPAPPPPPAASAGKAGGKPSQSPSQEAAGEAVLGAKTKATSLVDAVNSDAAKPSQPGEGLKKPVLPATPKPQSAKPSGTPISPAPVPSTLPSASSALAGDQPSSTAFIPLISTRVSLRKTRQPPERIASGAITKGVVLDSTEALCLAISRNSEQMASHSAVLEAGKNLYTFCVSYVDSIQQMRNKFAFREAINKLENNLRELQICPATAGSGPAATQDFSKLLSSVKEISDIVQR
T5 sequence (Q02750 whole entry): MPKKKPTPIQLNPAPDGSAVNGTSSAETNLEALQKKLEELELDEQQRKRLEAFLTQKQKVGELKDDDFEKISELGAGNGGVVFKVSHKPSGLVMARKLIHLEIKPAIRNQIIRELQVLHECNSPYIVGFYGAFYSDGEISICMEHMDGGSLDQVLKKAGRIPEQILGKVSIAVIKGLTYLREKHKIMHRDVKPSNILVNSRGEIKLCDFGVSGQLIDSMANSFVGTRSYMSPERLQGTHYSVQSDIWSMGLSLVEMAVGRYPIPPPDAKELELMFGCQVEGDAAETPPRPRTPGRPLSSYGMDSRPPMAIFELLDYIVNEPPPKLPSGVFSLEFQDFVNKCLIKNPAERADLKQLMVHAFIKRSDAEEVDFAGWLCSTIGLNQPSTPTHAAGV

As to `CS(=O)(=O)N1CC(c2nc(N)ncc2-c2ccc(F)cc2)C1` [G5], the inhibition at 20 µM on p70S6K was 26%; on SAPK2a (read-out: inhibitory effect on SAPK2a) it was 19%; on LOK1, 21%. Further, the “inhibitory effect on AMPK1α” value at AMPK1α is given as “only marginally affected”. Moreover, the “inhibitory effect on MEK1” value at MEK1 was “only marginally affected”. For the same molecule, the “inhibitory activity on CDKs” value in the test on CDKs was “did not show any evident inhibitory activity”. Moreover, the “MST binding check, displacement assay” value on GSK-3β [1] was “maintained their ability to bind GSK-3β”. The “Tm increase upon binding” value on GSK-3β [2] came out at 3.2 °C.

For `O=C(Nc1ccccn1)C1CCN(C(=O)CCc2ccccc2F)C1` (centres unmarked) [G12], the inhibition at 20 µM on p70S6K is 15%; at CDK9, 50%; on TAK1, 20%. Besides, the “inhibitory effect on SAPK2a” value on SAPK2a is “no inhibitory effect”. For the same molecule, on MLK1, the “inhibitory effect on MLK1” value is listed as “no inhibition”. Besides, at ABL, the “inhibitory effect on ABL” value was “no inhibitory effect”. Further, at GSK-3β [1] (complete binding curve, average of three experiments ± SD, read-out: affinity parameter (kd), MST), the Kd came to 66.5 ± 31.8 µM. The “MST binding check, displacement assay” value on GSK-3β [1] is “maintained their ability to bind GSK-3β”. Moreover, the “Tm increase upon binding” value on GSK-3β [2] was 2.5 °C.
